Experimental data taken from PubChem BioAssay (NCI).
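Values below derive from 48-hour exposures of cells grown in 96-well plates, with endpoints linearly interpolated between the two concentrations bracketing the appropriate inhibition level. Abbreviation: GI50, concentration required for 50% inhibition of growth. TGI: total growth inhibition.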

Legend:
Assay in all cases: DTP human tumour cell line panel, 48 h
786-0 renal = tested on: 786-0 renal
A498 renal = tested on: A498 renal
A549 NSCLC = tested on: A549 NSCLC
ACHN renal = tested on: ACHN renal
BT-549 breast = tested on: BT-549 breast
CAKI-1 renal = tested on: CAKI-1 renal
CCRF-CEM leukemia = tested on: CCRF-CEM leukemia
COLO 205 colon = tested on: COLO 205 colon
DU-145 prostate = tested on: DU-145 prostate
EKVX NSCLC = tested on: EKVX NSCLC
HCC-2998 colon = tested on: HCC-2998 colon
HCT-116 colon = tested on: HCT-116 colon
HCT-15 colon = tested on: HCT-15 colon
HL-60(TB) leukemia = tested on: HL-60(TB) leukemia
HOP-62 NSCLC = tested on: HOP-62 NSCLC
HS 578T breast = tested on: HS 578T breast
HT29 colon = tested on: HT29 colon
IGROV1 ovarian = tested on: IGROV1 ovarian
K-562 leukemia = tested on: K-562 leukemia
KM12 colon = tested on: KM12 colon
LOX IMVI melanoma = tested on: LOX IMVI melanoma
M14 melanoma = tested on: M14 melanoma
MALME-3M melanoma = tested on: MALME-3M melanoma
MCF7 breast = tested on: MCF7 breast
MDA-MB-231 breast = tested on: MDA-MB-231 breast
MDA-MB-435 = tested on: MDA-MB-435
MOLT-4 leukemia = tested on: MOLT-4 leukemia
NCI-H226 lung = tested on: NCI-H226 lung
NCI-H23 lung = tested on: NCI-H23 lung
NCI-H460 lung = tested on: NCI-H460 lung
NCI-H522 lung = tested on: NCI-H522 lung
NCI/ADR-RES ovarian = tested on: NCI/ADR-RES ovarian
OVCAR-3 ovarian = tested on: OVCAR-3 ovarian
OVCAR-4 ovarian = tested on: OVCAR-4 ovarian
OVCAR-8 ovarian = tested on: OVCAR-8 ovarian
PC-3 prostate = tested on: PC-3 prostate
RPMI-8226 leukemia = tested on: RPMI-8226 leukemia
RXF 393 renal = tested on: RXF 393 renal
SF-268 CNS = tested on: SF-268 CNS
SF-295 CNS = tested on: SF-295 CNS
SF-539 CNS = tested on: SF-539 CNS
SK-MEL-2 melanoma = tested on: SK-MEL-2 melanoma
SK-MEL-28 melanoma = tested on: SK-MEL-28 melanoma
SK-MEL-5 melanoma = tested on: SK-MEL-5 melanoma
SK-OV-3 ovarian = tested on: SK-OV-3 ovarian
SN12C renal = tested on: SN12C renal
SNB-19 CNS = tested on: SNB-19 CNS
SNB-75 CNS = tested on: SNB-75 CNS
SR leukemia = tested on: SR leukemia
SW-620 colon = tested on: SW-620 colon
T-47D breast = tested on: T-47D breast
TK-10 renal = tested on: TK-10 renal
U251 CNS = tested on: U251 CNS
UACC-257 melanoma = tested on: UACC-257 melanoma
UACC-62 melanoma = tested on: UACC-62 melanoma
UO-31 renal = tested on: UO-31 renal
HOP-92 NSCLC = tested on: HOP-92 NSCLC
OVCAR-5 ovarian = tested on: OVCAR-5 ovarian

## COc1ccc(C(=O)/C=C/c2c(C(F)(F)F)nc3ccccn23)cc1OC
786-0 renal
  GI50: 2.26 µM
  TGI: > 100 µM
A498 renal
  GI50: 3.46 µM
  TGI: 21.7 µM
A549 NSCLC
  GI50: 3.38 µM
  TGI: > 100 µM
ACHN renal
  GI50: 2.6 µM
  TGI: > 39.5 µM
BT-549 breast
  GI50: 2.34 µM
  TGI: 43.4 µM
CAKI-1 renal
  GI50: 1.71 µM
  TGI: > 24.5 µM
CCRF-CEM leukemia
  GI50: 0.46 µM
  TGI: 22.1 µM
COLO 205 colon
  GI50: 1.86 µM
  TGI: 3.95 µM
DU-145 prostate
  GI50: 1.3 µM
EKVX NSCLC
  GI50: 3.39 µM
  TGI: > 100 µM
HCC-2998 colon
  GI50: 0.553 µM
  TGI: 2.23 µM
HCT-116 colon
  GI50: 0.561 µM
  TGI: 4.26 µM
HCT-15 colon
  GI50: 1.57 µM
  TGI: > 100 µM
HL-60(TB) leukemia
  GI50: 0.758 µM
  TGI: 2.64 µM
HOP-62 NSCLC
  GI50: 3.38 µM
  TGI: > 28.4 µM
HS 578T breast
  GI50: 2.31 µM
  TGI: > 100 µM
HT29 colon
  GI50: 0.786 µM
IGROV1 ovarian
  GI50: 0.508 µM
  TGI: 3.41 µM
K-562 leukemia
  GI50: 0.377 µM
  TGI: > 100 µM
KM12 colon
  GI50: 0.646 µM
  TGI: 7.42 µM
LOX IMVI melanoma
  GI50: 0.584 µM
M14 melanoma
  GI50: 2.22 µM
  TGI: > 66.7 µM
MALME-3M melanoma
  GI50: 13.8 µM
  TGI: > 100 µM
MCF7 breast
  GI50: 0.518 µM
  TGI: > 100 µM
MDA-MB-231 breast
  GI50: 3.06 µM
  TGI: 8.55 µM
MDA-MB-435
  GI50: 1.15 µM
  TGI: > 100 µM
MOLT-4 leukemia
  GI50: 0.711 µM
  TGI: 3.24 µM
NCI-H226 lung
  GI50: 3.97 µM
  TGI: > 100 µM
NCI-H23 lung
  GI50: 1.66 µM
  TGI: > 26.9 µM
NCI-H460 lung
  GI50: 0.933 µM
  TGI: 2.99 µM
NCI-H522 lung
  GI50: 0.133 µM
  TGI: 0.929 µM
NCI/ADR-RES ovarian
  GI50: 0.877 µM
  TGI: 6.25 µM
OVCAR-3 ovarian
  GI50: 2.28 µM
  TGI: 6.09 µM
OVCAR-4 ovarian
  GI50: 3.28 µM
  TGI: > 48.6 µM
OVCAR-8 ovarian
  GI50: 1.06 µM
  TGI: > 25.1 µM
PC-3 prostate
  GI50: 2.73 µM
  TGI: > 100 µM
RPMI-8226 leukemia
  GI50: 0.362 µM
  TGI: 1.67 µM
RXF 393 renal
  GI50: 1.97 µM
  TGI: 8.68 µM
SF-268 CNS
  GI50: 2.07 µM
  TGI: > 24.7 µM
SF-295 CNS
  GI50: 3.15 µM
  TGI: 42.5 µM
SF-539 CNS
  GI50: 2.14 µM
SK-MEL-2 melanoma
  GI50: 1.72 µM
  TGI: 5.09 µM
SK-MEL-28 melanoma
  GI50: 7.1 µM
  TGI: > 100 µM
SK-MEL-5 melanoma
  GI50: 2.1 µM
  TGI: 20.1 µM
SK-OV-3 ovarian
  GI50: 2.38 µM
  TGI: 6.13 µM
SN12C renal
  GI50: 3.53 µM
  TGI: > 100 µM
SNB-19 CNS
  GI50: 3.77 µM
  TGI: > 22 µM
SNB-75 CNS
  GI50: 2.01 µM
  TGI: 6.77 µM
SR leukemia
  GI50: 0.272 µM
  TGI: 0.964 µM
SW-620 colon
  GI50: 0.527 µM
  TGI: > 100 µM
T-47D breast
  GI50: 1.78 µM
  TGI: 6.21 µM
TK-10 renal
  GI50: 2.07 µM
  TGI: > 20.6 µM
U251 CNS
  GI50: 1.1 µM
  TGI: > 100 µM
UACC-257 melanoma
  GI50: 2.43 µM
  TGI: > 100 µM
UACC-62 melanoma
  TGI: > 100 µM
UO-31 renal
  GI50: 1.62 µM
  TGI: 29.5 µM

## O=C1c2c(c3c4ccccc4n(CCCCCCN4CCOCC4)c3c3[nH]c4ccccc4c23)C(=O)N1O
786-0 renal
  GI50: 1.96 µM
  TGI: 5.43 µM
A498 renal
  GI50: 9.15 µM
  TGI: 25.4 µM
A549 NSCLC
  GI50: 39.8 µM
  TGI: > 100 µM
ACHN renal
  GI50: 4.14 µM
BT-549 breast
  GI50: 17.9 µM
  TGI: 46.9 µM
CAKI-1 renal
  GI50: 8.98 µM
  TGI: 28.9 µM
CCRF-CEM leukemia
  GI50: 2.25 µM
  TGI: 8.35 µM
COLO 205 colon
  GI50: 4.74 µM
  TGI: 21.9 µM
DU-145 prostate
  GI50: 11.5 µM
  TGI: > 100 µM
EKVX NSCLC
  GI50: > 43.1 µM
  TGI: > 82.5 µM
HCC-2998 colon
  GI50: 9.6 µM
  TGI: 32.1 µM
HCT-116 colon
  GI50: 1.85 µM
  TGI: 3.86 µM
HCT-15 colon
  GI50: 3.03 µM
  TGI: 12.2 µM
HL-60(TB) leukemia
  GI50: 2.49 µM
  TGI: 8.22 µM
HOP-62 NSCLC
  GI50: 18.2 µM
  TGI: 55.2 µM
HOP-92 NSCLC
  GI50: 13.2 µM
  TGI: 38.3 µM
HS 578T breast
  GI50: 2.07 µM
  TGI: 6.61 µM
HT29 colon
  GI50: 3.39 µM
  TGI: 18.1 µM
IGROV1 ovarian
  GI50: 3.76 µM
  TGI: 49.3 µM
KM12 colon
  GI50: 7.01 µM
  TGI: 57.7 µM
LOX IMVI melanoma
  GI50: 0.21 µM
  TGI: 0.736 µM
M14 melanoma
  GI50: 4.02 µM
  TGI: 30.7 µM
MALME-3M melanoma
  GI50: 1.74 µM
  TGI: 3.76 µM
MCF7 breast
  GI50: 2.07 µM
  TGI: 7.73 µM
MDA-MB-231 breast
  GI50: 2.17 µM
  TGI: 7.76 µM
MDA-MB-435
  GI50: 3.72 µM
  TGI: 20.1 µM
MOLT-4 leukemia
  GI50: 1.79 µM
  TGI: 4.63 µM
NCI-H226 lung
  GI50: > 32.5 µM
  TGI: > 80.4 µM
NCI-H23 lung
  GI50: 15.8 µM
  TGI: 45.9 µM
NCI-H460 lung
  GI50: 1.81 µM
  TGI: 3.66 µM
NCI-H522 lung
  GI50: 1.58 µM
  TGI: 4.15 µM
NCI/ADR-RES ovarian
  GI50: > 69.8 µM
  TGI: > 100 µM
OVCAR-3 ovarian
  GI50: 16.3 µM
  TGI: 33.8 µM
OVCAR-4 ovarian
  GI50: 4.44 µM
  TGI: 20.7 µM
OVCAR-5 ovarian
  GI50: > 49.3 µM
  TGI: > 75.8 µM
OVCAR-8 ovarian
  GI50: 2.44 µM
  TGI: 9.39 µM
PC-3 prostate
  GI50: 12.1 µM
  TGI: > 57 µM
RPMI-8226 leukemia
  GI50: 2.57 µM
  TGI: 7.76 µM
RXF 393 renal
  GI50: 7.61 µM
  TGI: 25.9 µM
SF-268 CNS
  GI50: 15.8 µM
  TGI: 39.4 µM
SF-295 CNS
  GI50: 16.8 µM
  TGI: 35.7 µM
SF-539 CNS
  GI50: 1.9 µM
  TGI: 4.03 µM
SK-MEL-2 melanoma
  GI50: 19.5 µM
  TGI: 46 µM
SK-MEL-28 melanoma
  GI50: 1.96 µM
  TGI: 4.02 µM
SK-MEL-5 melanoma
  GI50: 4.22 µM
  TGI: 20 µM
SK-OV-3 ovarian
  GI50: 20.6 µM
  TGI: 43.2 µM
SN12C renal
  GI50: 6.86 µM
  TGI: 26.4 µM
SNB-19 CNS
  GI50: 10.4 µM
  TGI: > 100 µM
SNB-75 CNS
  GI50: 1.36 µM
  TGI: 7.57 µM
SR leukemia
  GI50: 0.291 µM
  TGI: 1.08 µM
SW-620 colon
  GI50: 1.68 µM
  TGI: 3.93 µM
T-47D breast
  GI50: 18.7 µM
  TGI: > 94.6 µM
TK-10 renal
  GI50: 26.2 µM
  TGI: 54.8 µM
U251 CNS
  GI50: 1.68 µM
  TGI: 3.22 µM
UACC-257 melanoma
  GI50: 24.5 µM
  TGI: 56.6 µM
UACC-62 melanoma
  GI50: 1.91 µM
  TGI: 4.62 µM
UO-31 renal
  GI50: 1.25 µM
  TGI: 3.11 µM
